The values below are quoted from earlier work in patent publication US11638700B2, “Iron/shikonin nano-composite and use thereof and method for preparing the same by supermolecular self-assembly” (Jilin University, priority 2020, dated 2023).

For the data set the following is noted: generally considered.

As to `CC(C)=CC[C@@H](O)C1=CC(=O)c2c(O)ccc(O)c2C1=O` [shikonin], the “solubility of shikonin in water” value is given as “insoluble in water”.
